Assay results as given in patent publication US20090093423A2, “NOVEL 2-SUBSTITUTED METHYL PENAM DERIVATIVES” (Orchid Chemicals and Pharmaceuticals Limited, priority 2006, published 2009).

Assays:
[1] = tested on: E. coli BAA-200 (SHV-4); assay: MIC, Agar Dilution Method, ESBL producing ATCC isolate; type: cell-based; settings: E. coli BAA-200, SHV-4
Protocol: (§1) The novel compounds were tested for the in vitro antibacterial activities by the Agar Dilution Method as specified in documents published by NCCLS, now CLSI, USA. (National Committee for Clinical Laboratory Standards (NCCLS). 2003. Approved standard M7-A6. NCCLS, Villanova, Pa.).
(§2) Tazo was also dissolved in same buffer to get a solution of, e.g., 1 mg/mL. Novel penam derivatives described herein were dissolved in water to get a solution of, e.g., 1 mg/mL.
(§3) The novel compounds and Tazo were also tested individually. The bacterial inoculum was prepared by picking 3 to 5 well-isolated bacterial colonies with the same morphological appearance from an 18-24 h old culture and adjusting the turbidity of the saline suspension to 0.5 McFarland Turbidity Standard equivalent to a bacterial population of 1.5×10^8 colony forming units (CFU) per mL of suspension. The suspension was diluted 1:10 in saline (i.e. 0.5 mL suspension+4.5 mL saline) to get a bacterial population of 1.5×10^7 CFU/mL as inoculum. […] The inoculated petridishes were incubated at 35° C. in an ambient atmosphere for 16-20 h.

[2] = tested on: E. coli BAA-197 (TEM-12); assay: as above; type: cell-based
Protocol: as §1, §2, §3

[3] = tested on: E. coli BAA-202 (SHV-1); assay: as above; type: cell-based
Protocol: as §1, §2, §3

[4] = tested on: P. mirabilis BAA-663 (TEM-89); assay: as above; type: cell-based
Protocol: as §1, §2, §3

[5] = tested on: E. coli BAA-196 (TEM-10); assay: as above; type: cell-based
Protocol: as §1, §2, §3

[6] = tested on: E. coli BAA-198 (TEM-26); assay: as above; type: cell-based
Protocol: as §1, §2, §3

[7] = tested on: K. pneumoniae 51503 (TEM-10 & -12); assay: as above; type: cell-based
Protocol: as §1, §2, §3

[8] = tested on: E. coli BAA-201 (TEM-3); assay: as above; type: cell-based
Protocol: as §1, §2, §3

[9] = tested on: E. coli BAA-199 (SHV-3); assay: as above; type: cell-based; settings: E. coli BAA-199, SHV-3
Protocol: as §1, §2, §3

[10] = Intravenous pharmacokinetics in mice; type: in vivo, Swiss mice; settings: mouse, in vivo, iv
Text: Blood samples were collected at different time points. These samples were processed and analyzed by HPLC.

[11] = tested on: K. pneumoniae MRO 11008; assay: In vivo efficacy, infected mice; settings: Swiss albino mice infected with K. pneumoniae MRO 11008; Piperacillin:inhibitor 4:1; 7-day survival
Protocol: (§4) The efficacy studies were performed as described earlier (Kuck et al, 1989, Antimicrob. Agents. Chemother. 33(11): 1964-1969). Briefly, Swiss albino mice, 20+2 g, from in-house breeding facility were challenged by the intraperitoneal injection of bacterial suspensions in 0.5 mL of hog gastric mucin (10 to 100 50% lethal doses). […] All the untreated control animals died within 48 h of infection. In each experiment, in-house Tazo was used as an inhibitor control in four doses. Median (50%) effective dose (ED50) were determined by applying the Reed and Muench's method of the 7-day survival ratios.

[12] = tested on: E. coli MRO 10006; assay: In vivo efficacy, infected mice; settings: Swiss albino mice infected with E. coli MRO 10006; Piperacillin:inhibitor 4:1; 7-day survival
Protocol: as §4

[13] = tested on: E. coli MRO 10007; assay: In vivo efficacy, infected mice; settings: Swiss albino mice infected with E. coli MRO 10007; Piperacillin:inhibitor 4:1; 7-day survival
Protocol: as §4

[14] = tested on: K. pneumoniae MRO 11007; assay: MIC, Agar Dilution Method; type: cell-based; settings: strain 11007 (uncharacterized-ESBL clinical strain); inhibitor 1 μg/mL
Protocol: as §1, §2, §3

[15] = tested on: M. morganii 13702; assay: MIC, Agar Dilution Method; type: cell-based; settings: inhibitor 1 μg/mL
Protocol: as §1, §2, §3

[16] = tested on: K. pneumoniae ATCC 700603; assay: MIC, Agar Dilution Method; type: cell-based; settings: for MIC of Piperacillin with different concentrations of Tazo or compound of Example 1: K. pneumoniae 700603, SHV-18
Protocol: as §1, §2, §3

[17] = tested on: E. coli 10001; assay: MIC, Agar Dilution Method; type: cell-based; settings: strain 10001 (uncharacterized-ESBL clinical strain); inhibitor 1 μg/mL
Protocol: as §1, §2, §3

[18] = tested on: E. coli MRO 10006; assay: MIC, Agar Dilution Method; type: cell-based; settings: strain 10006 (uncharacterized-ESBL clinical strain); inhibitor 1 μg/mL
Protocol: as §1, §2, §3

[19] = tested on: S. odonifera 13801; assay: MIC, Agar Dilution Method; type: cell-based; settings: inhibitor 1 μg/mL
Protocol: as §1, §2, §3

[20] = tested on: M. catarrhalis ATCC 43627; assay: MIC, Agar Dilution Method; type: cell-based; settings: inhibitor 1 μg/mL
Protocol: as §1, §2, §3

[21] = tested on: K. pneumoniae 11006; assay: MIC, Agar Dilution Method; type: cell-based; settings: strain 11006 (uncharacterized-ESBL clinical strain); inhibitor 1 μg/mL
Protocol: as §1, §2, §3

[22] = tested on: E. cloacae 11801; assay: MIC, Agar Dilution Method; type: cell-based; settings: inhibitor 1 μg/mL
Protocol: as §1, §2, §3

[23] = tested on: P. aeruginosa 15021; assay: MIC, Agar Dilution Method; type: cell-based; settings: inhibitor 1 μg/mL
Protocol: as §1, §2, §3

[24] = tested on: M. morganii 13701; assay: MIC, Agar Dilution Method; type: cell-based; settings: inhibitor 1 μg/mL
Protocol: as §1, §2, §3

[25] = tested on: E. coli ATCC 25922; assay: MIC, Agar Dilution Method; type: cell-based; settings: inhibitor 1 μg/mL
Protocol: as §1, §2, §3

C[C@]1(Cn2ccnn2)[C@H](C(=O)O)N2C(=O)C[C@H]2S1(=O)=O [Tazo]
MIC of Piperacillin with different concentrations of Tazo or compound of Example 1 ([1]; inhibitor 1 μg/mL): >128 µg/mL
MIC of Piperacillin with different concentrations of Tazo or compound of Example 1 ([1]; inhibitor 2 μg/mL): >128 µg/mL
MIC of Piperacillin with different concentrations of Tazo or compound of Example 1 ([1]; inhibitor 4 μg/mL): 4 µg/mL
MIC of Piperacillin with different concentrations of Tazo or compound of Example 1 ([2]; inhibitor 1 μg/mL): 64 µg/mL
MIC of Piperacillin with different concentrations of Tazo or compound of Example 1 ([2]; inhibitor 2 μg/mL): 8 µg/mL
MIC of Piperacillin with different concentrations of Tazo or compound of Example 1 ([2]; inhibitor 4 μg/mL): 4 µg/mL
MIC of Piperacillin with different concentrations of Tazo or compound of Example 1 ([3]; inhibitor 1 μg/mL): >128 µg/mL
MIC of Piperacillin with different concentrations of Tazo or compound of Example 1 ([3]; inhibitor 2 μg/mL): >128 µg/mL
MIC of Piperacillin with different concentrations of Tazo or compound of Example 1 ([3]; inhibitor 4 μg/mL): >128 µg/mL
MIC of Piperacillin with different concentrations of Tazo or compound of Example 1 ([4]; inhibitor 1 μg/mL): 8 µg/mL
MIC of Piperacillin with different concentrations of Tazo or compound of Example 1 ([4]; inhibitor 2 μg/mL): 8 µg/mL
MIC of Piperacillin with different concentrations of Tazo or compound of Example 1 ([4]; inhibitor 4 μg/mL): 4 µg/mL
MIC of Piperacillin with different concentrations of Tazo or compound of Example 1 ([5]; inhibitor 1 μg/mL): 64 µg/mL
MIC of Piperacillin with different concentrations of Tazo or compound of Example 1 ([5]; inhibitor 2 μg/mL): 16 µg/mL
MIC of Piperacillin with different concentrations of Tazo or compound of Example 1 ([5]; inhibitor 4 μg/mL): 4 µg/mL
MIC of Piperacillin with different concentrations of Tazo or compound of Example 1 ([6]; inhibitor 1 μg/mL): 4 µg/mL
MIC of Piperacillin with different concentrations of Tazo or compound of Example 1 ([6]; inhibitor 2 μg/mL): 4 µg/mL
MIC of Piperacillin with different concentrations of Tazo or compound of Example 1 ([6]; inhibitor 4 μg/mL): 4 µg/mL
MIC of Piperacillin with different concentrations of Tazo or compound of Example 1 ([7]; inhibitor 1 μg/mL): >128 µg/mL
MIC of Piperacillin with different concentrations of Tazo or compound of Example 1 ([7]; inhibitor 2 μg/mL): >128 µg/mL
MIC of Piperacillin with different concentrations of Tazo or compound of Example 1 ([7]; inhibitor 4 μg/mL): 16 µg/mL
MIC of Piperacillin with different concentrations of Tazo or compound of Example 1 ([8]; inhibitor 1 μg/mL): 4 µg/mL
MIC of Piperacillin with different concentrations of Tazo or compound of Example 1 ([8]; inhibitor 2 μg/mL): 4 µg/mL
MIC of Piperacillin with different concentrations of Tazo or compound of Example 1 ([8]; inhibitor 4 μg/mL): 2 µg/mL
MIC of Piperacillin with different concentrations of Tazo or compound of Example 1 ([9]; inhibitor 1 μg/mL): >128 µg/mL
MIC of Piperacillin with different concentrations of Tazo or compound of Example 1 ([9]; inhibitor 2 μg/mL): >128 µg/mL
MIC of Piperacillin with different concentrations of Tazo or compound of Example 1 ([9]; inhibitor 4 μg/mL): >128 µg/mL
Elimination half-life [10]: 16.1 min
ED50 of Piperacillin in combination with inhibitor [11]: 99.48 mg/kg b.w.
ED50 of Piperacillin in combination with inhibitor [12]: 37.22 mg/kg b.w.
ED50 of Piperacillin in combination with inhibitor [13]: 58.81 mg/kg b.w.
MIC of Piperacillin with Tazo or compounds described herein at 1 μg/mL [14]: >128 µg/mL
MIC of Piperacillin with Tazo or compounds described herein at 1 μg/mL [15]: <0.25 µg/mL
MIC of Piperacillin with different concentrations of Tazo or compound of Example 1 ([16]; inhibitor 1 μg/mL): 16 µg/mL
MIC of Piperacillin with different concentrations of Tazo or compound of Example 1 ([16]; inhibitor 2 μg/mL): 16 µg/mL
MIC of Piperacillin with different concentrations of Tazo or compound of Example 1 ([16]; inhibitor 4 μg/mL): 16 µg/mL
MIC of Piperacillin with Tazo or compounds described herein at 1 μg/mL ([16]; K. pneumoniae ATCC 700603, inhibitor 1 μg/mL): 16 µg/mL
MIC of Piperacillin with Tazo or compounds described herein at 1 μg/mL [17]: 16 µg/mL
MIC of Piperacillin with Tazo or compounds described herein at 1 μg/mL [18]: 2 µg/mL
MIC of Piperacillin with Tazo or compounds described herein at 1 μg/mL [19]: 2 µg/mL
MIC of Piperacillin with Tazo or compounds described herein at 1 μg/mL [20]: <0.25 µg/mL
MIC of Piperacillin with Tazo or compounds described herein at 1 μg/mL [21]: 32 µg/mL
MIC of Piperacillin with Tazo or compounds described herein at 1 μg/mL [22]: 2 µg/mL
MIC of Piperacillin with Tazo or compounds described herein at 1 μg/mL [23]: 32 µg/mL
MIC of Piperacillin with Tazo or compounds described herein at 1 μg/mL [24]: 16 µg/mL
MIC of Piperacillin with Tazo or compounds described herein at 1 μg/mL [25]: 2 µg/mL
